Among the data in patent EP3553061A1, “NEW INHIBITORS OF BONE RESORPTION” (CENTRE NATIONAL DE LA RECHERCHE SCIENTIFIQUE (CNRS), priority 2018, dated 2019) are inhibition, Inhibition and IC50 values, retold here.

The assay concerns the target T1, human Dock5 (Homo sapiens, UniProt Q9H7D0).
T1 construct: plasmid expressing the catalytic DHR2 domain of mouse or human Dock5; expressed in transfected cells; host or cells: 293T cells
Briefly: Pull down assay of Rac activation by human Dock5 DHR2 in transfected 293T cells. It is filed as cell-based. The following applies: for IC50: 1 hour treatment; for inhibition at 100 µM: read-out: Inhibition. Here is the method: Compounds E73, E88 and E78 were tested for their inhibiting effect of the activation of Rac by mouse Dock5 of and for certain human Dock5 according to a screening test using a pull down assay as represented in Figure 1.
Methodology (Figure 1): cells 293T seeded onto 100 mm diameter plates in a DMEM culture medium containing 10% serum in an incubator in 5.5% CO2 humidified atmosphere at 37°C. When they reach the density of 5x10^6 cells per plate, cells are transfected with 8 µg of plasmid expressing the catalytic DHR2 domain of mouse or human Dock5 in order to activate endogenous GTPase Rac. After 24 hours, the cells are lifted using trypsin and are seeded 10^6 per well in 6-well plates of 35 mms in diameter. The following day, the cells are put in contact during one hour with the compound, in a mother solution at 20 mM into 100% DMSO, to a test concentration of 100 µM into 0.5% DMSO in the DMEM medium containing 0.1% of BSA. The basal activation of Rac by Dock5 is measured from the cells treated with 0.5% DMSO. After treatment, the cells are observed under the optical microscope to make sure of the absence of any toxic effect of the compound. If cell suffering is detected, the test is invalidated and the compound is retested at a lower dosage. The cells are then lysed in 100 µl of the pull down buffer (10% glycerol, 50 mm Tris pH 7.4, 100 mM NaCl, 1% IGEPAL® CA-630 (SIGMA I3021), 2 mM MgCl2 supplemented with proteases inhibitors) and the lysate is incubated during one hour with 20 µg of sepharose beads coupled with the fusion protein GST-PAK-CRIB, which binds specifically the activated form of GTPase Rac, which is bound to GTP. After centrifugation and washings, the proteins associated with the beads, including active Rac GTPase, are denatured and loaded on an SDS PAGE gel. […] For each compound tested, the level of active Rac GTPase is quantified using the Image J software and is normalized to the concentration of total protein in the whole cell lysate. The efficiency of the molecule is defined by the level of active Rac after treatment compared to the level of active Rac in the cells treated with DMSO (control). An activity is considered as inhibitory if the level of Rac activation decreases by at least 10%, 20%, in particular at least 30%, 40%, and preferably at least 50% compared to the control treated with DMSO (Table 1).
The same approach was used to test the potency of molecules of the 48ED family, on the activity of human Dock5 DHR2 (Table 2). Table 2: Inhibitory activity of the compounds of the 48ED family on human Dock5 activity.

Where [1] appears, read: HEK-293T, Table 3, human Dock5, at 50µM.
[2] abbreviates: Table 3, human Dock5, test concentration 100 µM, 1 hour, replicate values, 100 µM.
Setting [3] is: HEK-293T, Table 3, human Dock5, test concentration 100 µM, 1 hour, replicate values.
Setting [4] is: Table 2, human Dock5 DHR2, test concentration 100 µM, 1 hour, replicate values, Negative = Rac activation does not decrease, 100 µM.
[5] abbreviates: HEK-293T, Table 2, human Dock5 DHR2, test concentration 100 µM, 1 hour, replicate values, Negative = Rac activation does not decrease.
The mark [6] stands for this setting: Table 2, human Dock5 DHR2, test concentration 100 µM, 1 hour, replicate values, Negative = Rac activation does not decrease.
The mark [7] stands for this setting: Table 3, human Dock5, test concentration 100 µM, 1 hour, replicate values.

Several values for one entry are separate records, joined by “and”; a condition that tells them apart may be missing. Identical values can stand only once. Like-named read-outs stand apart in the source and are kept apart here.

Usually inhibition stands for the share of the control response that was lost under treatment. Usually IC50 stands for the concentration needed to halve the response being measured.

T1 sequence (Q9H7D0 1231-1642 limits assumed): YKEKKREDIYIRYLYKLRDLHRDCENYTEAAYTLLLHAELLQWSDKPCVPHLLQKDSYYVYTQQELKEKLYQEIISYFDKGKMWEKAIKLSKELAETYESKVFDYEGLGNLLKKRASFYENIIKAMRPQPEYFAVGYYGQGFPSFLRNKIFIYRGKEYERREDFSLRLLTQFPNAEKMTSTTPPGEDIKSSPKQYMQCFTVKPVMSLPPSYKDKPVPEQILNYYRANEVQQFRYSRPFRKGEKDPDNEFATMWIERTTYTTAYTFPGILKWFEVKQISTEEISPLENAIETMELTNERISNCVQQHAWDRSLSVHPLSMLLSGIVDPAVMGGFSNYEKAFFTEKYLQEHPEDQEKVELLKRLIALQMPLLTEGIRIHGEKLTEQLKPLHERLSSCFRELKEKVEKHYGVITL

Under setting [1], `O=S1(=O)N(c2ccccc2)C[C@H](O)[C@]12CCN(Cc1ccccc1Cl)C2` (racemic) [E196, rac-(4S,5R)-7-(2-chlorobenzyl)-4-hydroxy-2-phenyl-1-thia-2,7-diazaspiro[4.4]nonane 1,1-dioxide] showed an inhibition at 50 µM of 40%. Moreover, the Inhibition under setting [2] is 95% (2×) and 35%. Also, the IC50 (human Dock5) worked out at 35 µM.

As to `O=S1(=O)N(c2ccccc2)C[C@H](O)[C@]12CCN(Cc1cnc3ccccc3c1)C2` (racemic) [E203, rac-(4S,5R)-4-hydroxy-2-phenyl-7-(quinolin-3-ylmethyl)-1-thia-2,7-diazaspiro[4.4]nonane 1,1-dioxide], the inhibition at 50 µM under setting [1] stood at 95%. Further, the Inhibition (Table 3, human Dock5, at 50µM) came out at 90%. Where the note is “human Dock5”, this compound showed an IC50 of 22 µM.

Under setting [1], `Cn1cc(CN2CC[C@@]3(C2)[C@@H](O)CN(c2ccccc2)S3(=O)=O)c2ccccc21` (racemic) [E204, rac-(4S,5R)-4-hydroxy-7-((1-methyl-1H-indol-3-yl)methyl)-2-phenyl-1-thia-2,7-diazaspiro[4.4]nonane 1,1-dioxide] showed an inhibition at 50 µM of 60%. The inhibition at 100 µM under setting [3] was determined as 100%. Also, under setting [2], the Inhibition was determined as 95%. Further, under “human Dock5”, it took 33 µM to reach half-maximal inhibition (IC50).

Regarding `O=S1(=O)N(c2ccccc2)C[C@H](O)[C@]12CCN(Cc1cc3ccccc3o1)C2` (racemic) [E205, rac-(4S,5R)-7-(benzofuran-2-ylmethyl)-4-hydroxy-2-phenyl-1-thia-2,7-diazaspiro[4.4]nonane 1,1-dioxide], the inhibition at 50 µM under setting [1] came to 70%. Besides, the inhibition at 100 µM under setting [3] turned out to be 100%. The IC50 (human Dock5) worked out at 43 µM.

For `O=S1(=O)N(c2ccccc2)C[C@H](O)[C@]12CCN(Cc1ccc3c(c1)CCC3)C2` (racemic) [E210, rac-(4S,5R)-7-((2,3-dihydro-1H-inden-5-yl)methyl)-4-hydroxy-2-phenyl-1-thia-2,7-diazaspiro[4.4]nonane 1,1-dioxide], at 50 µM the inhibition under setting [1] was 85%. Also, where the note is “human Dock5”, half-maximal inhibition (IC50) was put at 32 µM.

Turning to `COc1ccc(CN2CC[C@@]3(C2)[C@@H](O)CN(c2ccccc2)S3(=O)=O)cc1F` (racemic) [E211, rac-(4S,5R)-7-(3-fluoro-4-methoxybenzyl)-4-hydroxy-2-phenyl-1-thia-2,7-diazaspiro[4.4]nonane 1,1-dioxide], the inhibition at 50 µM under setting [1] turned out to be 90%. Besides, where the note is “human Dock5”, the IC50 was 44 µM.

Take `O=S1(=O)N(c2ccccc2)C[C@H](O)[C@]12CCN(Cc1ccccc1)C2` [E118]: under setting [4], the Inhibition is 85% (2×) and 60% and 55%.

As to `O=S1(=O)N(c2ccccc2)C[C@@H](O)[C@]12CCN(Cc1ccccc1)C2` [E119], the inhibition at 100 µM under setting [5] is 25%.

`CN1C[C@H](O)[C@]2(CCN(Cc3ccccc3)C2)S1(=O)=O` [E120]: the Inhibition result under setting [6] is given as “Negative”.

With `CN1C[C@@H](O)[C@]2(CCN(Cc3ccccc3)C2)S1(=O)=O` [E121], under setting [6], the Inhibition entry was “Negative”.

`O=S1(=O)N(c2ccccc2)C[C@H](O)[C@]12CCNC2` [E123]: the inhibition at 100 µM under setting [5] stood at 10%.

Regarding `CO[C@H]1CN(C)S(=O)(=O)[C@@]12CCN(Cc1ccccc1)C2` [E124], the Inhibition entry under setting [6] is given as “Negative”.

Consider `CO[C@@H]1CN(C)S(=O)(=O)[C@@]12CCN(Cc1ccccc1)C2` [E125], for which the Inhibition entry under setting [6] is on record as “Negative”.

With `CN1C[C@H](Oc2ccccn2)[C@]2(CCN(Cc3ccccc3)C2)S1(=O)=O` [E126], the inhibition at 100 µM under setting [5] came to 10%.

Take `O=S1(=O)N(c2ccccc2)C[C@H](O)[C@]12CCN(Cc1ccc(F)cc1)C2` [E127]: under setting [4], the Inhibition is 40% and 50% and 85% and 90%.

Under “HEK-293T, Table 2, human Dock5 DHR2, at 50µM”, `O=S1(=O)N(c2ccccc2)C[C@H](O)[C@]12CCN(Cc1cccc(C(F)(F)F)c1)C2` [E128] came in with an inhibition at 50 µM of 70%. Moreover, the inhibition at 100 µM under setting [5] was found to be 90%.

Take `N#Cc1ccc(CN2CC[C@@]3(C2)[C@@H](O)CN(c2ccccc2)S3(=O)=O)cc1` [E129]: the Inhibition under setting [4] is 70% and 90% and 95%.

Take `CS(=O)(=O)c1ccc(CN2CC[C@@]3(C2)[C@@H](O)CN(c2ccccc2)S3(=O)=O)cc1` [E131]: the Inhibition under setting [4] was 50% and 70% and 90%.

On to `O=S1(=O)N(c2ccccc2)C[C@H](O)[C@]12CCN(Cc1ccc3ccccc3c1)C2` [E132], for which the inhibition at 10 µM (HEK-293T, Table 2, human Dock5 DHR2, at 10µM) is 50%. The inhibition at 100 µM under setting [5] is 70%. In addition, the Inhibition (Table 2, human Dock5 DHR2, at 10µM) is reported as 60%.

For the compound `CC(=O)N1CC[C@@]2(C1)[C@@H](O)CN(c1ccccc1)S2(=O)=O` [E133], under setting [5], the inhibition at 100 µM is 5%.

Regarding `O=C(CC1CCCC1)N1CC[C@@]2(C1)[C@@H](O)CN(c1ccccc1)S2(=O)=O` [E135], under setting [4], the Inhibition is 70% and 50% and 95%.

Take `Cc1cc(C(=O)N2CC[C@@]3(C2)[C@@H](O)CN(c2ccccc2)S3(=O)=O)no1` [E136]: the inhibition at 100 µM under setting [5] was 30%.

`O=C(c1ccccc1)N1CC[C@@]2(C1)[C@@H](O)CN(c1ccccc1)S2(=O)=O` [E137]: the Inhibition under setting [4] is 70% and 40% and 15%.

On to `CS(=O)(=O)N1CC[C@@]2(C1)[C@@H](O)CN(c1ccccc1)S2(=O)=O` [E138], for which the inhibition at 100 µM under setting [5] was 30%.

As to `O=S1(=O)N(c2ccccc2)C[C@@H](O)[C@]12CCN(Cc1ccccc1F)C2` [E139], under setting [4], the Inhibition is 60% and 10%.

`COC(=O)c1ccc(CN2CC[C@@]3(C2)[C@H](O)CN(c2ccccc2)S3(=O)=O)cc1` [E140]: the inhibition at 100 µM under setting [5] was 50%.

Take `O=S1(=O)N(c2ccccc2)C[C@H](O)[C@]12CCN(CC1CCCCC1)C2` [E198]: the Inhibition under setting [2] was 95% and 10% and 85%.

In the case of `Cc1noc(C)c1CN1CC[C@@]2(C1)[C@@H](O)CN(c1ccccc1)S2(=O)=O` [E199], the inhibition at 100 µM under setting [3] was found to be 40%. Also, the Inhibition under setting [7] amounted to 40% / 40%.

With `Cn1cc(CN2CC[C@@]3(C2)[C@@H](O)CN(c2ccccc2)S3(=O)=O)cn1` [E201], the Inhibition under setting [2] is 60% and 10% (2×).

Turning to `O=S1(=O)N(c2ccccc2)C[C@H](O)[C@]12CCN(Cc1ccc3c(c1)OCO3)C2` [E206], the Inhibition under setting [2] is 50% and 100% and 70%.

Regarding `O=S1(=O)N(c2ccccc2)C[C@H](O)[C@]12CCN(C1CCCCCC1)C2` [E207], the inhibition at 100 µM under setting [3] stood at 20%.

`O=S1(=O)N(c2ccccc2)C[C@H](O)[C@]12CCN(Cc1cccs1)C2` [E208]: under setting [3], the inhibition at 100 µM worked out at 35%.

As for `COc1cc(CN2CC[C@@]3(C2)[C@@H](O)CN(c2ccccc2)S3(=O)=O)cc(OC)c1` [E209], the inhibition at 100 µM under setting [3] was determined as 35%.

With `O=S1(=O)N(c2ccccc2)C[C@H](O)[C@]12CCN(Cc1ccc3[nH]ccc3c1)C2` [E212], the inhibition at 100 µM under setting [3] is 98%. The same compound came in with an Inhibition under setting [2] of 100%.

For `CN(C)c1ccc(CN2CC[C@@]3(C2)[C@@H](O)CN(c2ccccc2)S3(=O)=O)cc1` [E213], the inhibition at 100 µM under setting [3] amounted to 90%. Also, the Inhibition under setting [7] is 90%/ 90%.

In the case of `N#Cc1cccc(CN2CC[C@@]3(C2)[C@@H](O)CN(c2ccccc2)S3(=O)=O)c1` [E214], the Inhibition under setting [2] is 90% and 50%.

For `O=S1(=O)N(c2ccccc2)C[C@H](O)[C@]12CCN(CCc1ccccc1)C2` [E217], the inhibition at 100 µM under setting [5] was found to be 25%.

Regarding `O=S1(=O)N(Cc2ccccc2)C[C@H](Oc2ccccn2)[C@]12CCN(Cc1ccccc1)C2` [E224], the inhibition at 100 µM under setting [3] came to 20%.

Regarding `CO[C@H]1CN(Cc2ccccc2)S(=O)(=O)[C@@]12CCN(Cc1ccccc1)C2` [E225], the inhibition at 100 µM under setting [3] is 35%.

For `O=C1N(c2cccc(F)c2)CCC12CCN(Cc1cccc(Cl)c1)C2` (centres unmarked) [E226, 7-(3-chlorobenzyl)-2-(3-fluorophenyl)-2,7-diazaspiro[4.4]nonan-1-one], under setting [1], the inhibition at 50 µM turned out to be 55%. Where the note is “human Dock5”, this compound yielded an IC50 of 20 µM.

Take `COc1ccc(N2CCC3(CCN(Cc4cccc(Cl)c4)C3)C2=O)cc1OC` (centres unmarked) [E227]: under setting [2], the Inhibition was 90% and 50% and 60%.
